Columns and labels:
Chenopodium album = test: Test H weed control, field plots; assay type: in vivo; conditions: 36 days after treatment; g a.i./ha: tribenuron-methyl 22.5, metsulfuron-methyl 6, ethametsulfuron-methyl 16, imazapyr isopropylamine salt 15, aclonifen 1200
Description: (§1) Field plots (2 m×5 m) were tilled to remove weed cover and then seeded in rows with the following weeds: Capsella bursa pastoris, Atriplex patula, Chenopodium album, Stellaria media, Mecurialis annua, Polygonum persicaria, Amaranthus retroflexus, Polygonum convolvulus, Polygonum aviculare, Viola arvensis, Matricaria inodora, Anagallis arvensis, Sinapis arvensis, Setaria viridis, Solanum nigrum and Echinochloa crusgalli. After 21 days from sowing, at which time the weeds had reached the 2- to 6-leaf stage, herbicide treatments were applied to the plots according to a complete randomized block design, with each herbicide treatment triply replicated. The herbicides were sprayed using standard flat fan nozzles moved perpendicular to the sown lines using water spray volumes of about 296 L/ha.
(§2) Assessments of weed control were made by visual inspection 36 days after herbicide treatment. A visual rating system was used based on a percentage scale from 0 to 100% compared to an adjacent untreated control plot. On this scale 0 represents no visual differences relative to an untreated control and 100 represents complete control of the given weed species.

Stellaria media = test: Test H weed control, field plots; assay type: in vivo; conditions: 36 days after treatment; g a.i./ha: tribenuron-methyl 22.5, metsulfuron-methyl 6, ethametsulfuron-methyl 16, imazapyr isopropylamine salt 15, aclonifen 1200
Description: as §1, §2

Atriplex patula = test: Test H weed control, field plots; assay type: in vivo; parameters: concentration or dose not given beside the values; conditions: 36 days after treatment; g a.i./ha: tribenuron-methyl 22.5, metsulfuron-methyl 6, ethametsulfuron-methyl 16, imazapyr isopropylamine salt 15, aclonifen 1200
Description: as §1, §2

Polygonum convolvulus = test: Test H weed control, field plots; assay type: in vivo; parameters: concentration or dose not given beside the values; conditions: 36 days after treatment; g a.i./ha: tribenuron-methyl 22.5, metsulfuron-methyl 6, ethametsulfuron-methyl 16, imazapyr isopropylamine salt 15, aclonifen 1200
Description: as §1, §2

Solanum nigrum = test: Test H weed control, field plots; assay type: in vivo; parameters: concentration or dose not given beside the values; conditions: 36 days after treatment; g a.i./ha: tribenuron-methyl 22.5, metsulfuron-methyl 6, ethametsulfuron-methyl 16, imazapyr isopropylamine salt 15, aclonifen 1200
Description: as §1, §2

Capsella bursa pastoris = test: Test H weed control, field plots; assay type: in vivo; parameters: concentration or dose not given beside the values; conditions: 36 days after treatment; g a.i./ha: tribenuron-methyl 22.5, metsulfuron-methyl 6, ethametsulfuron-methyl 16, imazapyr isopropylamine salt 15, aclonifen 1200
Description: as §1, §2

Mercurialis annua = test: Test H weed control, field plots; assay type: in vivo; parameters: concentration or dose not given beside the values; conditions: 36 days after treatment; g a.i./ha: tribenuron-methyl 22.5, metsulfuron-methyl 6, ethametsulfuron-methyl 16, imazapyr isopropylamine salt 15, aclonifen 1200
Description: as §1, §2

Viola arvensis = test: Test H weed control, field plots; assay type: in vivo; parameters: concentration or dose not given beside the values; conditions: 36 days after treatment; g a.i./ha: tribenuron-methyl 22.5, metsulfuron-methyl 6, ethametsulfuron-methyl 16, imazapyr isopropylamine salt 15, aclonifen 1200
Description: as §1, §2

Polygonum persicaria = test: Test H weed control, field plots; assay type: in vivo; parameters: concentration or dose not given beside the values; conditions: 36 days after treatment; g a.i./ha: tribenuron-methyl 22.5, metsulfuron-methyl 6, ethametsulfuron-methyl 16, imazapyr isopropylamine salt 15, aclonifen 1200
Description: as §1, §2

Matricaria inodora = test: Test H weed control, field plots; assay type: in vivo; parameters: concentration or dose not given beside the values; conditions: 36 days after treatment; g a.i./ha: tribenuron-methyl 22.5, metsulfuron-methyl 6, ethametsulfuron-methyl 16, imazapyr isopropylamine salt 15, aclonifen 1200
Description: as §1, §2

Sinapis arvensis = test: Test H weed control, field plots; assay type: in vivo; parameters: concentration or dose not given beside the values; conditions: 36 days after treatment; g a.i./ha: tribenuron-methyl 22.5, metsulfuron-methyl 6, ethametsulfuron-methyl 16, imazapyr isopropylamine salt 15, aclonifen 1200
Description: as §1, §2

Echinochloa crus-galli = test: Test H weed control, field plots; assay type: in vivo; parameters: concentration or dose not given beside the values; conditions: 36 days after treatment; g a.i./ha: tribenuron-methyl 22.5, metsulfuron-methyl 6, ethametsulfuron-methyl 16, imazapyr isopropylamine salt 15, aclonifen 1200
Description: as §1, §2

Anagallis arvensis = test: Test H weed control, field plots; assay type: in vivo; parameters: concentration or dose not given beside the values; conditions: 36 days after treatment; g a.i./ha: tribenuron-methyl 22.5, metsulfuron-methyl 6, ethametsulfuron-methyl 16, imazapyr isopropylamine salt 15, aclonifen 1200
Description: as §1, §2

Polygonum aviculare = test: Test H weed control, field plots; assay type: in vivo; parameters: concentration or dose not given beside the values; conditions: 36 days after treatment; g a.i./ha: tribenuron-methyl 22.5, metsulfuron-methyl 6, ethametsulfuron-methyl 16, imazapyr isopropylamine salt 15, aclonifen 1200
Description: as §1, §2

Amaranthus retroflexus = test: Test H weed control, field plots; assay type: in vivo; parameters: concentration or dose not given beside the values; conditions: 36 days after treatment; g a.i./ha: tribenuron-methyl 22.5, metsulfuron-methyl 6, ethametsulfuron-methyl 16, imazapyr isopropylamine salt 15, aclonifen 1200
Description: as §1, §2

Setaria viridis = test: Test H weed control, field plots; assay type: in vivo; parameters: concentration or dose not given beside the values; conditions: 36 days after treatment; g a.i./ha: tribenuron-methyl 22.5, metsulfuron-methyl 6, ethametsulfuron-methyl 16, imazapyr isopropylamine salt 15, aclonifen 1200
Description: as §1, §2

BC4-M5M12 × PHA155 = test: Test C field phytotoxicity, BC4-M5M12 × PHA155; assay type: in vivo, sunflower
Description: (§3) A rating of 0% phytotoxicity means no crop injury.

BC4-M5M7 × PHA155 = test: Test C field phytotoxicity, BC4-M5M7 × PHA155; assay type: in vivo, sunflower
Description: as §3

H89A × M4M7 = assay type: in vivo, sunflower; conditions: variety H; 30 g a.i./ha post-emergence
Description: (§4) To generate the hybrids C, D and E, the fourth generation self-pollinated maintainer mutant lines M4M12, M4M11 and M4M7 were chemically sterilized by applying at the bud “star” flower stage a small amount of gibberellic acid solution to sterilize the pollen according to the general method described in Sunflower Science Technology, J. F. Carter ed. (Number 19 in the series “Agronomy”) pp. 339-386. This treatment enables maintainer plants to behave as CMS inbred lines and allows the production of heterozygous resistant hybrids, with the herbicide resistant source coming from the female side. Such crosses allowed evaluating the sexual effect of the mutation source when introduced on the female side of a cross as described in crosses C, D and E versus the male side of a cross as described in crosses F, G and H. Labels I, J and K identify third generation CMS mutant lines crossed with fourth generation maintainer lines to maintain the highly heritable mutant trait in a male sterile homozygous resistant environment. One skilled in sunflower breeding art understands the meaning of such crosses.
as §3

H89A × M4M12 = assay type: in vivo, sunflower; conditions: variety F; 30 g a.i./ha post-emergence
Description: as §4, §3

H89A × M4M11 = assay type: in vivo, sunflower; conditions: variety G; 30 g a.i./ha post-emergence
Description: as §4, §3

[1] = system: Inbred line control: H89A; assay type: in vivo, sunflower; conditions: variety B; 30 g a.i./ha post-emergence
Description: as §4, §3

[2] = system: Hybrid control: H89A × RHA274; assay type: in vivo, sunflower; conditions: variety A; 30 g a.i./ha post-emergence
Description: as §4, §3

BC3-M4M7 = test: Test A field trial, phytotoxicity, variety K; assay type: in vivo, sunflower; conditions: variety K; 30 g a.i./ha post-emergence
Description: as §4, §3

BC3-M4M11 = test: Test A field trial, phytotoxicity, variety J; assay type: in vivo, sunflower; conditions: variety J; 30 g a.i./ha post-emergence
Description: as §4, §3

[3] = system: Homozygous resistant inbred lines, BC3-M4M12 (I), BC3-M4M11 (J) and BC3-M4M7 (K); test: Test A summary, homozygous resistant inbred lines; conditions: Test A application rates
Experimental: In a small field trial, the sunflower varieties described in Table 4 were sprayed post-emergence with a variety of sulfonylurea herbicide treatments.
Broadcast post-emergence applications of formulated sulfonylurea herbicides were performed at the 6-leaf development stage using four randomly distributed replications. Application rates were chosen to match the usual use rates of these herbicides in the crops they are registered in Europe. All herbicides except for metsulfuron-methyl were sprayed in combination with Citowet® non-ionic ethoxylated alcohol at 0.25% volume of formulated product per volume of water applied per hectare.
The evaluation of the maximum (i.e. peak) injury to sunflower varieties by sulfonylurea herbicides was measured by visual ratings, which are listed in Table 5. A rating of 0% phytotoxicity means no crop injury. […] A rating of 100% means the complete destruction of all plants.

BC3-M4M12 = test: Test A field trial, phytotoxicity, variety I; assay type: in vivo, sunflower; conditions: variety I; 30 g a.i./ha post-emergence
Description: as §4, §3

GA-M4M11 × RHA274 = test: Test A field trial, phytotoxicity, variety D; assay type: in vivo, sunflower; conditions: variety D; 30 g a.i./ha post-emergence
Description: as §4, §3

GA-M4M12 × RHA274 = test: Test A field trial, phytotoxicity, variety C; assay type: in vivo, sunflower; conditions: variety C; 30 g a.i./ha post-emergence
Description: as §4, §3

GA-M4M7 × RHA274 = test: Test A field trial, phytotoxicity, variety E; assay type: in vivo, sunflower; conditions: variety E; 30 g a.i./ha post-emergence
Description: as §4, §3

[4] = postemergence 18.75 g a.i./ha, 7 DAT
[5] = postemergence 18.75 g a.i./ha, 15 DAT
[6] = postemergence 18.75 g a.i./ha, 30 DAT
[7] = postemergence 37.5 g a.i./ha, 7 DAT
[8] = postemergence 37.5 g a.i./ha, 15 DAT
[9] = postemergence 37.5 g a.i./ha, 30 DAT

Nc1c([N+](=O)[O-])ccc(Oc2ccccc2)c1Cl [Aclonifen, aclonifen]
weed control, visual rating: Chenopodium album (Chenopodium album): 100%
weed control, visual rating: Stellaria media (Stellaria media): 100%
weed control, visual rating: Atriplex patula (Atriplex patula): 0%
weed control, visual rating: Polygonum convolvulus (Polygonum convolvulus): 23%
weed control, visual rating: Solanum nigrum (Solanum nigrum): 20%
weed control, visual rating: Capsella bursa pastoris (Capsella bursa pastoris): 100%
weed control, visual rating: Mercurialis annua (Mercurialis annua): 50%
weed control, visual rating: Viola arvensis (Viola arvensis): 57%
weed control, visual rating: Polygonum persicaria (Polygonum persicaria): 70%
weed control, visual rating: Matricaria inodora (Matricaria inodora): 0%
weed control, visual rating: Sinapis arvensis (Sinapis arvensis): 100%
weed control, visual rating: Echinochloa crus-galli (Echinochloa crus-galli): 0%
weed control, visual rating: Anagallis arvensis (Anagallis arvensis): 100%
weed control, visual rating: Polygonum aviculare (Polygonum aviculare): 30%
weed control, visual rating: Amaranthus retroflexus (Amaranthus retroflexus): 40%
weed control, visual rating: Setaria viridis (Setaria viridis): 40%

COc1cc(OC)nc(NC(=O)NS(=O)(=O)c2ncccc2C(=O)N(C)C)n1 [Nicosulfuron, nicosulfuron]
Phytotoxicity Rating After Treatment (BC4-M5M12 × PHA155; [4]): 28%
Phytotoxicity Rating After Treatment (BC4-M5M12 × PHA155; [5]): 20%
Phytotoxicity Rating After Treatment (BC4-M5M12 × PHA155; [6]): 18%
Phytotoxicity Rating After Treatment (BC4-M5M12 × PHA155; [7]): 42%
Phytotoxicity Rating After Treatment (BC4-M5M12 × PHA155; [8]): 52%
Phytotoxicity Rating After Treatment (BC4-M5M12 × PHA155; [9]): 50%
Phytotoxicity Rating After Treatment (BC4-M5M7 × PHA155; [4]): 37%
Phytotoxicity Rating After Treatment (BC4-M5M7 × PHA155; [5]): 40%
Phytotoxicity Rating After Treatment (BC4-M5M7 × PHA155; [6]): 18%
Phytotoxicity Rating After Treatment (BC4-M5M7 × PHA155; [7]): 57%
Phytotoxicity Rating After Treatment (BC4-M5M7 × PHA155; [8]): 55%
Phytotoxicity Rating After Treatment (BC4-M5M7 × PHA155; [9]): 50%
Maximum Phytotoxicity (H89A × M4M7): 16%
Maximum Phytotoxicity (H89A × M4M12): 15%
Maximum Phytotoxicity (H89A × M4M11): 20%
Maximum Phytotoxicity [1]: 54%
Maximum Phytotoxicity [2]: 33%
Maximum Phytotoxicity (BC3-M4M7): 14%
Maximum Phytotoxicity (BC3-M4M11): 23%
tolerance of homozygous resistant lines compared with heterozygous hybrids [3]: the homozygous resistant lines were more tolerant
tolerance of homozygous resistant inbred lines I, J, K ([3]; triflusulfuron-methyl at 20 g a.i./ha): marginally tolerant
Maximum Phytotoxicity (BC3-M4M12): 8%
Maximum Phytotoxicity (GA-M4M11 × RHA274): 13%
Maximum Phytotoxicity (GA-M4M12 × RHA274): 12%
Maximum Phytotoxicity (GA-M4M7 × RHA274): 13%
